Experimental data: paper doi:10.1101/2025.04.18.649305v1 (biorxiv, 2025)

Target: NAMPT (recombinant human) (Homo sapiens, UniProt P43490)
Assay: biolayer interferometry
Type: binding

Chain of NAMPT (recombinant human) (P43490 whole entry): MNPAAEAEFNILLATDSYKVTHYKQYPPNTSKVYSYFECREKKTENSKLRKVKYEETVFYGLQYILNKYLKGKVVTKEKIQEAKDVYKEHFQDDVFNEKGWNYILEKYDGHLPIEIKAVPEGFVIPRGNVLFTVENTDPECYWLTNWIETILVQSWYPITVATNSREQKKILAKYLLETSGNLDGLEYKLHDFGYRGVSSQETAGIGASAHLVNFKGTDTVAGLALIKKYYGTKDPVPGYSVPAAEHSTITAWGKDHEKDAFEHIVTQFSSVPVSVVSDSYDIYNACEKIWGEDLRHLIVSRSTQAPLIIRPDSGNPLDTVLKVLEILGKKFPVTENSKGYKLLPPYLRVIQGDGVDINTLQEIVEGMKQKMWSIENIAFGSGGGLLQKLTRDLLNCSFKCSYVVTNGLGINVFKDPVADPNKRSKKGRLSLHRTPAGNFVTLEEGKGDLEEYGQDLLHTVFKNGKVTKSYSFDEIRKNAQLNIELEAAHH

In the case of O=C(CC(C(=O)O)c1c[nH]c2ccccc12)c1ccc(F)cc1F (racemic) [MA-5], the Kd is reported as 106 µM.
